Where “and” joins values, the source holds several entries; their conditions need not be identical. Identical values can stand only once.
How the values were obtained:
Assay in all cases: PathHunter β-arrestin GpcrMAX assay
Type in all cases: cell-based
ADRA1B = target: T1, ADRA1B (Homo sapiens, UniProt P35368)
T1 construct: purchased DiscoveRx (Eurofins) gpcrMAX PathHunter β-arrestin panel
Procedure: (§1) GpcrMAX panel biosensor assays were used to characterize taveuniamide F (4, 20 µM) (agonist and antagonist mode). The experiments were carried out by DiscoveRx Corporation (Fremont, CA, USA) as described before, using PathHunter β-arrestin enzyme fragment complementation (EFC) technology.

ADRA2A = target: T2, ADRA2A (Homo sapiens, UniProt P08913)
T2 construct: purchased DiscoveRx (Eurofins) gpcrMAX PathHunter β-arrestin panel
T2 sequence (P08913 whole entry): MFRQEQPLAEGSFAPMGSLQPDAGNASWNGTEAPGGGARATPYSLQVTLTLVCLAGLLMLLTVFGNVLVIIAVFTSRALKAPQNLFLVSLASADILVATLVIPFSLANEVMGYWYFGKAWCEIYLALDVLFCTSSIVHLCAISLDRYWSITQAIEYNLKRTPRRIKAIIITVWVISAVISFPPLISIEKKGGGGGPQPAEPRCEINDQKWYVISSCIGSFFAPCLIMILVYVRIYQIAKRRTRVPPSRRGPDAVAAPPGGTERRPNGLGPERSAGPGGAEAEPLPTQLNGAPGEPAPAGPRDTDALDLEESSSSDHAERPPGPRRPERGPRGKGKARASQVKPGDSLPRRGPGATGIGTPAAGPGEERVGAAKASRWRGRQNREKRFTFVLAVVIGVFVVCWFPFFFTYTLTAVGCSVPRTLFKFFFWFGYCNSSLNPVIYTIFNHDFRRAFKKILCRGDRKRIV
Procedure: as §1

ADRA2C = target: T3, ADRA2C (Homo sapiens, UniProt P18825)
T3 construct: purchased DiscoveRx (Eurofins) gpcrMAX PathHunter β-arrestin panel
Procedure: as §1

BDKRB1 = BDKRB1 (Homo sapiens, UniProt P46663)
Procedure: as §1

CCR4 = target: T4, CCR4 (Homo sapiens, UniProt P51679)
T4 construct: purchased DiscoveRx (Eurofins) gpcrMAX PathHunter β-arrestin panel
Procedure: as §1

CHRM2 = target: T5, CHRM2 (Homo sapiens, UniProt P08172)
T5 construct: purchased DiscoveRx (Eurofins) gpcrMAX PathHunter β-arrestin panel
T5 sequence (P08172 whole entry): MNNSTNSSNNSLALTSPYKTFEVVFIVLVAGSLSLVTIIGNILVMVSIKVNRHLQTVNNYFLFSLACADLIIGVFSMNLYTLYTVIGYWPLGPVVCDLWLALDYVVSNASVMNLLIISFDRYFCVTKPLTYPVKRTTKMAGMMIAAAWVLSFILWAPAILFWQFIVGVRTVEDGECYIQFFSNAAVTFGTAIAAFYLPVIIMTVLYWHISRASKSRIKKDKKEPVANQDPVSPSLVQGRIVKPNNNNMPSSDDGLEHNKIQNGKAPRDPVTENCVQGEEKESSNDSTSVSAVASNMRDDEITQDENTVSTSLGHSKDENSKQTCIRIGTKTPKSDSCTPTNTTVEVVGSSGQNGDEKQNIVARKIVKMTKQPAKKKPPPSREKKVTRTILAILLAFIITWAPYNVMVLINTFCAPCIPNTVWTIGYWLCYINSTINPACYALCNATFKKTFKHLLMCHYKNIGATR
Procedure: as §1

CXCR5 = target: T6, CXCR5 (Homo sapiens, UniProt P32302)
T6 construct: purchased DiscoveRx (Eurofins) gpcrMAX PathHunter β-arrestin panel
Procedure: as §1

DRD2S = target: T7, DRD2S (Homo sapiens, UniProt P14416)
T7 construct: purchased DiscoveRx (Eurofins) gpcrMAX PathHunter β-arrestin panel
Procedure: as §1

DRD4 = target: T8, DRD4 (Homo sapiens, UniProt P21917)
T8 construct: purchased DiscoveRx (Eurofins) gpcrMAX PathHunter β-arrestin panel
Procedure: as §1

EDG3 = target: T9, EDG3 (Homo sapiens, UniProt Q99500)
T9 construct: purchased DiscoveRx (Eurofins) gpcrMAX PathHunter β-arrestin panel
Procedure: as §1

F2RL1 = target: T10, F2RL1 (Homo sapiens, UniProt P55085)
T10 construct: purchased DiscoveRx (Eurofins) gpcrMAX PathHunter β-arrestin panel
Procedure: as §1

FSHR = target: T11, FSHR (Homo sapiens, UniProt P23945)
T11 construct: purchased DiscoveRx (Eurofins) gpcrMAX PathHunter β-arrestin panel
T11 sequence (P23945 18-695): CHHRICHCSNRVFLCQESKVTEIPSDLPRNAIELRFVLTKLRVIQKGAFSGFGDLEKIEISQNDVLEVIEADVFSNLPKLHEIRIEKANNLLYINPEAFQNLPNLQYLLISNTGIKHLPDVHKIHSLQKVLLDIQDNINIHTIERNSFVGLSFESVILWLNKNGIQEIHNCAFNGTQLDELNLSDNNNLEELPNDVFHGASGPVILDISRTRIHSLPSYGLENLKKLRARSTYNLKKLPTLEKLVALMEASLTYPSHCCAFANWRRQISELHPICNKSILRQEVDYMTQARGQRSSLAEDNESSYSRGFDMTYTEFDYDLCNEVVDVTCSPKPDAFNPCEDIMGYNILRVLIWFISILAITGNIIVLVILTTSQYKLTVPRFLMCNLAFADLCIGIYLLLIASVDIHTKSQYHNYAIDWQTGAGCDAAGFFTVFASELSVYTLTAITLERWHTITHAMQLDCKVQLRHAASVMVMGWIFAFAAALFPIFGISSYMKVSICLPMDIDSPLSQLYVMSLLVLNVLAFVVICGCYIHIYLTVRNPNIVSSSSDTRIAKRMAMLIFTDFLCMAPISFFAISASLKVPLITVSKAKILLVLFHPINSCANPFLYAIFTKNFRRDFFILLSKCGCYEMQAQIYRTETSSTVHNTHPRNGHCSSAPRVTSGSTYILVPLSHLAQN
Procedure: as §1

GCGR = target: T12, GCGR (Homo sapiens, UniProt P47871)
T12 construct: purchased DiscoveRx (Eurofins) gpcrMAX PathHunter β-arrestin panel
Procedure: as §1

GLP1R = target: T13, GLP1R (Homo sapiens, UniProt P43220)
T13 construct: purchased DiscoveRx (Eurofins) gpcrMAX PathHunter β-arrestin panel
T13 sequence (P43220 24-463): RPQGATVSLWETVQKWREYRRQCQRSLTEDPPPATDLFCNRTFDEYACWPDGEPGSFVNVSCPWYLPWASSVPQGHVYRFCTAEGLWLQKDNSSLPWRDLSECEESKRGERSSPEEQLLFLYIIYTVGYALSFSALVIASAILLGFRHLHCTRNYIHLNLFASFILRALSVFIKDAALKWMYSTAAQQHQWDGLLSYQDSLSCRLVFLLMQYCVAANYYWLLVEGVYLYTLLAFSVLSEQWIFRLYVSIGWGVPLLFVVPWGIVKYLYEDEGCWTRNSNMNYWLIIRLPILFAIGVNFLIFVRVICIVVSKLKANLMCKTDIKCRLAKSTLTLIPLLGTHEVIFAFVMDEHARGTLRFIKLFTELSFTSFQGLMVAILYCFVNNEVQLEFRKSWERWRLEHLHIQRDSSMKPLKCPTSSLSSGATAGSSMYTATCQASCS
Procedure: as §1

GRPR = target: T14, GRPR (Homo sapiens, UniProt P30550)
T14 construct: purchased DiscoveRx (Eurofins) gpcrMAX PathHunter β-arrestin panel
T14 sequence (P30550 whole entry): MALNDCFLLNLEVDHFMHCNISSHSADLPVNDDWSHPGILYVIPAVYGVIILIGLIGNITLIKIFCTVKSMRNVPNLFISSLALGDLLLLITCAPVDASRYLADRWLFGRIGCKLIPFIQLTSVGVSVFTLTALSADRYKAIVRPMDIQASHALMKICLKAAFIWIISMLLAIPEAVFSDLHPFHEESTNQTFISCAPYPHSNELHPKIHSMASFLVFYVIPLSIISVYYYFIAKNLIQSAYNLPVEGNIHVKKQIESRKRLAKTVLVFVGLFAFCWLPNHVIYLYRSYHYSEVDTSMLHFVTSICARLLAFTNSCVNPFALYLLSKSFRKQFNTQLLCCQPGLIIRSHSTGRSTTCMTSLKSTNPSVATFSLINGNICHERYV
Procedure: as §1

HCRTR2 = target: T15, HCRTR2 (Homo sapiens, UniProt O43614)
T15 construct: purchased DiscoveRx (Eurofins) gpcrMAX PathHunter β-arrestin panel
T15 sequence (O43614 whole entry): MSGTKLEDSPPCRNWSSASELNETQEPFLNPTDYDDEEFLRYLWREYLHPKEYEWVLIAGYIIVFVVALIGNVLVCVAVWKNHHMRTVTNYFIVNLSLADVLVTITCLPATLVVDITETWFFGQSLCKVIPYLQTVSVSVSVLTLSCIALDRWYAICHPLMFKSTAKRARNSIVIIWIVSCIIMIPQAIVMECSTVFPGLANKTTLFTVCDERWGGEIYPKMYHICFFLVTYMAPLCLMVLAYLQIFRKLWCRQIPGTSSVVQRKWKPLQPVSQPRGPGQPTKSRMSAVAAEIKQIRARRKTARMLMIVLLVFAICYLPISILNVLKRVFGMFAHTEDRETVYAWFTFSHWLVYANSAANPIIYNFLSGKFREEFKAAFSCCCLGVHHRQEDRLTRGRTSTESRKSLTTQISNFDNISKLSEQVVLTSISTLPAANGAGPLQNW
Procedure: as §1

MC5R = target: T16, MC5R (Homo sapiens, UniProt P33032)
T16 construct: purchased DiscoveRx (Eurofins) gpcrMAX PathHunter β-arrestin panel
T16 sequence (P33032 whole entry): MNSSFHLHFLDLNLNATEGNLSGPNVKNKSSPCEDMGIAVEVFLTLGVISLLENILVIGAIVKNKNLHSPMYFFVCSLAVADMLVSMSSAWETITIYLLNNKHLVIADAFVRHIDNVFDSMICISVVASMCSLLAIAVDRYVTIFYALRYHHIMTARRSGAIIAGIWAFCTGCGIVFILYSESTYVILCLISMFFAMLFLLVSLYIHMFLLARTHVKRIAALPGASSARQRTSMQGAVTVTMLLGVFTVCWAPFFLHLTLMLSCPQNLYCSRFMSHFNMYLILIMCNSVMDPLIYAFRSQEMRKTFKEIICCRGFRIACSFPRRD
Procedure: as §1

OPRM1 = target: T17, OPRM1 (Homo sapiens, UniProt P35372)
T17 construct: purchased DiscoveRx (Eurofins) gpcrMAX PathHunter β-arrestin panel
T17 sequence (P35372 whole entry): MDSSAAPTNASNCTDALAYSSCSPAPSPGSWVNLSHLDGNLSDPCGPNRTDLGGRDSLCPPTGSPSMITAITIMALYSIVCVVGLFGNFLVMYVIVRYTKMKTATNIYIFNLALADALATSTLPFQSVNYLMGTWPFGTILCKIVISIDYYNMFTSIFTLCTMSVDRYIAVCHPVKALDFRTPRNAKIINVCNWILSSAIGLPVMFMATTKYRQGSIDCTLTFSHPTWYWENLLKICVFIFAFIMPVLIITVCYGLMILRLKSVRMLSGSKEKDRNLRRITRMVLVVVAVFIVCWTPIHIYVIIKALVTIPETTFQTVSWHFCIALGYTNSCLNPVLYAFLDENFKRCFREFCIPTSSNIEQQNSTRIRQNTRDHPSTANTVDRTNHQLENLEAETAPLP
Procedure: as §1

P2RY6 = target: T18, P2RY6 (Homo sapiens, UniProt Q15077)
T18 construct: purchased DiscoveRx (Eurofins) gpcrMAX PathHunter β-arrestin panel
T18 sequence (Q15077 whole entry): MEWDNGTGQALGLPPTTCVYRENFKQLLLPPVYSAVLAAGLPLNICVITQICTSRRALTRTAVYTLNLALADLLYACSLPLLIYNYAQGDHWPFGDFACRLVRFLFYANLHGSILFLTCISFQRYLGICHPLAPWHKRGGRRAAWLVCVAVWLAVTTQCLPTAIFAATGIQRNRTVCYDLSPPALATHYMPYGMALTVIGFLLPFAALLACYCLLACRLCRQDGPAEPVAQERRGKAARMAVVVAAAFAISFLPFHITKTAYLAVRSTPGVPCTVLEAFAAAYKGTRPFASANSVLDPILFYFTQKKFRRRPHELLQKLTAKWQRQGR
Procedure: as §1

CHRM4 = target: T19, CHRM4 (Homo sapiens, UniProt P08173)
T19 construct: host or cells: CHO-K1
T19 sequence (P08173 1-479): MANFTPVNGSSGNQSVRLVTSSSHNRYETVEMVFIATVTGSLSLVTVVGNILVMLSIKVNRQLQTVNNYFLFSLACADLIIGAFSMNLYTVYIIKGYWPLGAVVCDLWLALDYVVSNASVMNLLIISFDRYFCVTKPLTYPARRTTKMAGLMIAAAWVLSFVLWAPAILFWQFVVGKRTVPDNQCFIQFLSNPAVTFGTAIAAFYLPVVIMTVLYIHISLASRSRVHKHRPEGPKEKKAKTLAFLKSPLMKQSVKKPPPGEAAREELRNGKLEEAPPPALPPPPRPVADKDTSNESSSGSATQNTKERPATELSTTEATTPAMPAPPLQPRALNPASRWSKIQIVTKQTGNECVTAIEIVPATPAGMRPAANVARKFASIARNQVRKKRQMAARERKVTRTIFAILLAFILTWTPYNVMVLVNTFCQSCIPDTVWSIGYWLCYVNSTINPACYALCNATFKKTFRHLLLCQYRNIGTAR
Procedure: as §1
(§2) Dose–response curves were obtained by subjecting taveuniamide F (4) to a secondary antagonist screen utilizing ten GPCR biosensor assays (Arrestin) against the following targets: GPR119, NPSR1b, HTR2C, CCR9, CHRM4, GPR120, HTR2A, GPR103, CNR1, and CNR2. Stably transfected HEK293 cells expressing GPR119, U2OS cells expressing NPSR1b, HTR2C and HTR2A, and CHO-K1 cells expressing the rest of the mentioned receptors, were incubated with 4 for 30 min. The assays were performed at 10-point concentrations using 3-fold serial dilutions in duplicate, where the highest concentration was 50 µM.

GPR119 = target: T20, GPR119 (Homo sapiens, UniProt Q8TDV5)
T20 construct: host or cells: HEK293
T20 sequence (Q8TDV5 whole entry): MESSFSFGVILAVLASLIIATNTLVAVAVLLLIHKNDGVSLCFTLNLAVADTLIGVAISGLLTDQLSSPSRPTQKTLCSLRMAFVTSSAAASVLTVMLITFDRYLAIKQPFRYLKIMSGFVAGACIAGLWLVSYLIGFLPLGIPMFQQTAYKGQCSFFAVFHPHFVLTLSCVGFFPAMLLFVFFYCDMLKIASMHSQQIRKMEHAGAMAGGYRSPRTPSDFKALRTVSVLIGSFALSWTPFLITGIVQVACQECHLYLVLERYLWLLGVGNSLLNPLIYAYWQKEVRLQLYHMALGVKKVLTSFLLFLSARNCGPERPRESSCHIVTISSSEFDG
Procedure: as §1, §2

HTR2C = target: T21, HTR2C (Homo sapiens, UniProt P28335)
T21 construct: β-galactosidase enzyme fragment for EFC (ProLink by own knowledge); host or cells: U2OS
T21 sequence (P28335 33-458): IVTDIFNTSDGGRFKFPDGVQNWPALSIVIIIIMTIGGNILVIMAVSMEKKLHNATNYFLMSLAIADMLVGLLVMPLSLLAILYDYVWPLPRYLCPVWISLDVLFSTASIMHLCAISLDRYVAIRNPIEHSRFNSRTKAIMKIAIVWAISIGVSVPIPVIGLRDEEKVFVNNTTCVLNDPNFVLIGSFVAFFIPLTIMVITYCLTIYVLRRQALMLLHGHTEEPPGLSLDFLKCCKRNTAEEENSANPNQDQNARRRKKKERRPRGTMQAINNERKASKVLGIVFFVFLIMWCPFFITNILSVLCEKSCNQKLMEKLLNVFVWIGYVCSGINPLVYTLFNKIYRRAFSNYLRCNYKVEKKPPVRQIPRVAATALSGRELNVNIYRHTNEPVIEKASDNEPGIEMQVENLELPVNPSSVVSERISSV
Procedure: as §1, §2

NPSR1b = target: T22, NPSR1b (Homo sapiens, UniProt Q6W5P4)
T22 construct: β-galactosidase enzyme fragment for EFC (ProLink by own knowledge); host or cells: U2OS
T22 sequence (Q6W5P4 1-377 isoform Q6W5P4-4): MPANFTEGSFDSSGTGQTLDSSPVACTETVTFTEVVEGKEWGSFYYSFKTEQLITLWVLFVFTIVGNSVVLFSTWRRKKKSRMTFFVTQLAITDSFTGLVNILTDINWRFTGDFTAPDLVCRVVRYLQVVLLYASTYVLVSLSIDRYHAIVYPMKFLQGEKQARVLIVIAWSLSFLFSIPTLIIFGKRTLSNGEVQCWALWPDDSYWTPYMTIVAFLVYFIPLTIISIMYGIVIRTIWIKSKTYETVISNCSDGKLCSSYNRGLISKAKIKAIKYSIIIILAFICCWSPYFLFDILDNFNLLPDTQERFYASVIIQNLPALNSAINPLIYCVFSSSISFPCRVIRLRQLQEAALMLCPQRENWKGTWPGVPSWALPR
Procedure: as §1, §2

[1] = antagonist mode (% inhibition), 20 µM
[2] = antagonist dose–response, 10-point, U2OS cells, 30 min

`CC(=O)N[C@@H](CCCC#C/C=C/Cl)CCCCCCC(Cl)Cl` [Compound 4, taveuniamide F] gave an inhibition at 20 µM (ADRA1B) of 22.9%, an inhibition at 20 µM (ADRA2A) of 42.3% and an inhibition at 20 µM (ADRA2C) of 25.1%. The inhibition at 20 µM (BDKRB1) was 26.2%, the inhibition at 20 µM (CCR4) was 58.9% and the inhibition at 20 µM (CHRM2) was 36.7%. It also gave an inhibition at 20 µM (CXCR5) of 5.1%, an inhibition at 20 µM (DRD2S) of -8.1% and an inhibition at 20 µM (DRD4) of 20.8%. The inhibition at 20 µM (EDG3) was 21%, the inhibition at 20 µM (F2RL1) was -6.7% and the inhibition at 20 µM (FSHR) was 40.5%. For the same molecule, the inhibition at 20 µM (GCGR) was 2.2%, the inhibition at 20 µM (GLP1R) was 59.9% and the inhibition at 20 µM (GRPR) was 6.2%. It also gave an inhibition at 20 µM (HCRTR2) of 11.6%, an inhibition at 20 µM (MC5R) of 39.8% and an inhibition at 20 µM (OPRM1) of -1%. For the same molecule, the inhibition at 20 µM (P2RY6) was 1.2%, the IC50 (CHRM4; antagonist dose–response, 10-point, CHO-K1 cells, 30 min) was 1900 nM and 1920 nM and the inhibition (CHRM4; [1]) was ≥ 80%. The inhibition at 20 µM (CHRM4; [1]) was 98.2%, the IC50 (GPR119; antagonist dose–response, 10-point, HEK293 cells, 30 min) was 11.7 µM and the inhibition (GPR119; [1]) was 114% and ≥ 80%. The IC50 (HTR2C; [2]) was > 50 µM, the inhibition (HTR2C; [1]) was ≥ 80% and the inhibition at 20 µM (HTR2C; [1]) was 99.1%. For the same molecule, the IC50 (NPSR1b; [2]) was 4.4 µM and 4.36 µM and the inhibition (NPSR1b; [1]) was 102% and ≥ 80%.
